Test results taken from patent US20140123342A1, “Regulation of Stomatal Apertures by Apyrases and Extracellular Nucleotides” (BOARD OF REGENTS, THE UNIVERSITY OF TEXAS SYSTEM, priority 2011, published 2014).

Experiments:
Format in all cases: cell-based, Arabidopsis thaliana
[1] = test system: NO in guard cells; assay: Detection and quantification of NO (DAF-2 DA fluorescence); conditions: 200 μM, leaf epidermal tissue, after 45 min
Experimental: (§1) Detection and Quantification of H2O2 and NO: Col-0 plants were grown on soil for 2 to 4 weeks under continuous light at 21° C. Plants were placed in the dark for 24 h to ensure closure and then transferred to the light for 1 h. After 1 h in the light, mature basal leaves were excised and blended in a Waring blender on the low setting for approximately 10 s to isolate epidermal tissues, and the tissues were placed in 3 mL of 30 mM KCl, 10 mM Mes-KOH, pH 6.16 buffer in light for 2 h (Pei et al., 2000; Murata et al., 2001). DAF-2 DA and H2DCFDA were dissolved in DMSO to produce 5 mM and 10 mM stock solutions, respectively, and these were stored at −20° C. in 30 μL, aliquots. Fifty μM H2DCFDA or 15 μM DAF-2 DA was added to the medium in the dark, and after 30 min, 10 μM ABA, 200 μM ATPγS, or buffer (ATP control) was also added to the medium in the dark for 30 min. Peels were then rinsed by decanting the treatment solution and adding 3 mL fresh leaf buffer to the peels. Peels were rinsed twice as described. A peel from each of the three treatments (ABA, ATPγS and buffer) were placed on the same microscope slide and observed sequentially. A second study was staggered 30 to 45 min after the first by loading the H2DCFDA or DAF-2 DA dye to new peels 30 to 45 min after the first round of dye was added. Confocal laser scanning microscopy (CLSM) was performed with a Leica SP2 AOBS confocal microscope (Leica Microsystems, Bannockburn, Ill., USA). Laser power was set at 15%, with an excitation of 488 nm and an emission of 525 nm. A series of 0.5 μm optical sections with average intensity projection along the z axis were collected and made into one 2D image with greater focal depth. All images were obtained with the same software scanning settings including detector gain and laser intensity settings.

[2] = test system: stomata (guard cells) in whole leaves; assay: Stomatal aperture closure studies, whole leaves in the light
Experimental: (§2) Stomatal Aperture Studies: Arabidopsis thaliana ecotypes Columbia (Col-0) and Wassilewskija (WS) were used as wild types in this study. Col-0, nia1nia2, atrbohD/F, R2-4A and WS plants were all grown on autoclaved Metro-Mix 200 soil at 22° C. under continuous light. The mutant seeds nia1nia2 nia2-5; CS 2356; Col-0 background) were obtained from Dr. N. M. Crawford (University of California at San Diego) and the mutant seeds atrbohD/F (Col-0 background) were obtained from Dr. J. M. Kwak (University of Maryland). The RNAi mutant apyrase line (R2-4A) is in WS background, so WS ecotype was used as the control wild type for these studies. Leaves from 2 to 3 week old Col-0 plants, or R2-4A and WS plants treated with 4 μM estradiol for 1 week after development of mature basal leaves were used for peel and whole leaf studies. Plants were placed in the dark and watered 24 h before an study. For opening studies, plants were used immediately after 24 h dark treatment and all treatments were done in the dark except for the light treated leaves or peels, thus the control stomata are dark controls. For closure studies, plants were placed in the light 3 h before an study to induce stomatal opening and all treatments were done in the light, thus the control stomata are light controls. For peel studies, epidermal peels were made from the underside of the leaf and treatments were applied to the peels for 1 h. For whole leaf studies, leaves were removed and treatments were applied for 2 h. For each treatment, about 3 or 4 peels collected from different leaves or 3 or 4 different leaves of at least two different plants were floated with the abaxial side up in petri dishes on 3 mL of Arabidopsis leaf buffer consisting of 10 mM KCl, 25 mM MES pH 6.15 (Melotto et al., 2006) and the chemical being tested. For whole leaf studies peels were collected after the treatment.
(§3) For studies testing the effects of ATPγS, ADPγS, AMPS, RB2, and PPADS (Sigma, St. Louis, Mo., USA) 20 mM stocks were made by dissolving the compounds in de-ionized water. For studies testing the effects of apyrase inhibitors, 7.5 mg/mL of NGXT191 and of inhibitor #13 (Windsor et al., 2002) was dissolved in dimethyl sulfoxide (DMSO) and then applied at a dilution of […] for a final concentration of 0.1% DMSO. ABA (Sigma, St. Louis, Mo., USA) was dissolved in ethanol in 10 mM stocks and then applied at a dilution of 1:1000. The stocks were stored at −20° C. while not in use. The production of the anti-AtAPY1 antibodies used is described by Steinebrunner et al. (2003). The crude immune and pre-immune sera were purified using protein A-Sepharose following the protocol described by Martin (1982) with the slight modification that the buffers used were azide-free. The protein-A purified sera were both used at a 1:1000 dilution in leaf stomatal aperture studies. The concentration of the immune and pre-immune sera, determined by Bradford assay (Bio-Rad), was 10.2 μg/mL and 7.7 μg/mL, respectively.
(§4) After treatment, photos of stomata were taken using a light microscope at 20×. Stomatal aperture width was measured using the image processing software ImageJ. Typically, photos were taken of 70 to 90 stomata per treatment of which only 50 stomata were measured for each treatment. For each treatment the ratio of closed stomata (width of 0) to open stomata was determined for all stomata imaged and this ratio was maintained in the 50 stomata that were measured for each treatment. Data shown uses apertures determined as width/length, however data in all studies also obtained as width only and generally width/length and width only data are in agreement with each other. Statistical significance of the measurements for the treatments was determined using the Student's t test in Microsoft Excel.

[3] = test system: stomata (guard cells) in epidermal peels; assay: Stomatal aperture closure studies, epidermal peels in the light; conditions: for effect on stomatal aperture: epidermal peels, light, 1 h
Experimental: as §2, §3, §4

[4] = test system: stomata (guard cells) in whole leaves; assay: Stomatal aperture opening studies, whole leaves in the dark; conditions: whole leaf studies (data not shown)
Experimental: as §2
as §3, with “The crude immune and pre-immune sera were purified using protein A-Sepharose following the protocol described by Martin (1982) with the slight modification that the buffers used were azide-free. The protein-A purified sera were both used at a 1:1000 dilution in leaf stomatal aperture studies.” left out
as §4

[5] = test system: stomata (guard cells) in epidermal peels; assay: Stomatal aperture opening studies, epidermal peels in the dark; conditions: for effect on stomatal aperture: darkness, 1 h
Experimental: as §2, §3, §4

[6] = test system: stomata of nia1nia2 mutant leaves; assay: Stomatal closing studies with whole leaves of nia1nia2 mutant; conditions: 200 ATPγS
Experimental: (§5) Stomatal Aperture Studies: Arabidopsis thaliana ecotypes Columbia (Col-0) and Wassilewskija (WS) were used as wild types in this study. Col-0, nia1nia2, atrbohD/F, R2-4A and WS plants were all grown on autoclaved Metro-Mix 200 soil at 22° C. under continuous light. The mutant seeds nia1nia2 nia2-5; CS 2356; Col-0 background) were obtained from Dr. N. M. Crawford (University of California at San Diego) and the mutant seeds atrbohD/F (Col-0 background) were obtained from Dr. J. M. Kwak (University of Maryland). The RNAi mutant apyrase line (R2-4A) is in WS background, so WS ecotype was used as the control wild type for these studies. […]
as §4, with “Statistical significance of the measurements for the treatments was determined using the Student's t test in Microsoft Excel.” left out

[7] = test system: stomata of atrbohD/F mutant leaves; assay: Stomatal closing studies with whole leaves of atrbohD/F mutant; conditions: 200 ATPγS
Experimental: as §5
as §4, with “Statistical significance of the measurements for the treatments was determined using the Student's t test in Microsoft Excel.” left out

[8] = test system: H2O2 in guard cells; assay: Detection and quantification of H2O2 (H2DCFDA fluorescence); conditions: 200 μM, leaf epidermal tissue, after 30 min
Experimental: as §1

With `Nc1ncnc2c1ncn2[C@@H]1O[C@H](COP(=O)(O)OP(=O)(O)OP(O)(O)=S)[C@@H](O)[C@H]1O` [ATPγS] the “increase in DAF-2 DA fluorescence in guard cells” value [1] was 2.5 fold, the “effect on stomatal aperture” value ([2]; 200 μM, leaves, light, 2 h) was “induced stomatal closure” and the “threshold for nucleotide-induced stomatal closure” value ([2]; whole leaf studies, compared with peel studies (150 to 200 μM; not shown)) was “same threshold”. For the same molecule, the “effect on stomatal aperture” value ([3]; 150 μM) was “no statistically significant effect”, the “mean stomatal aperture after closure compared with ABA” value ([3]; 200 μM versus 10 μM ABA) was “statistically the same as the aperture induced by treatment with 10 μM ABA” and the “effect on stomatal aperture” value ([3]; 200 μM) was “induced stomatal closure”. The “effect on stomatal aperture” value ([3]; 250 μM) was “induced stomatal closure”, the “threshold concentration for stomatal opening” value [4] was “higher than 5 μM” and the “effect on stomatal aperture” value ([5]; 5 μM) was “induced opening”. The “effect on stomatal aperture” value ([5]; 15 μM) was “induced opening”, the “mean stomatal aperture compared with light treatment” value ([5]; low concentrations (5 and 15 μM)) was “smaller than the aperture induced by light treatment” and the “effect on stomatal aperture” value [6] was “no effect on stomatal aperture”. For the same molecule, the “effect on stomatal aperture” value [7] was “no effect on stomatal aperture” and the “increase in H2DCFDA fluorescence in guard cells” value [8] was 3 fold.
